Assay results taken from patent US7943603B2, “Medical uses of a selective estrogen receptor modulator in combination with sex steroid precursors” (Endorecherche, Inc., priority 1998, dated 2011).

Experiments:
[1] = Example 5 table: serum, urinary and GnRH mRNA parameters in OVX groups; assay type: in vivo; settings: doses not given; for LH: LD: Limit of Detection: 0.01 ng/ml
[2] = target: T1, estrogen receptor (Homo sapiens, UniProt P03372); test: Testing of antiestrogens for function as SERM
T1 sequence (P03372 1-595): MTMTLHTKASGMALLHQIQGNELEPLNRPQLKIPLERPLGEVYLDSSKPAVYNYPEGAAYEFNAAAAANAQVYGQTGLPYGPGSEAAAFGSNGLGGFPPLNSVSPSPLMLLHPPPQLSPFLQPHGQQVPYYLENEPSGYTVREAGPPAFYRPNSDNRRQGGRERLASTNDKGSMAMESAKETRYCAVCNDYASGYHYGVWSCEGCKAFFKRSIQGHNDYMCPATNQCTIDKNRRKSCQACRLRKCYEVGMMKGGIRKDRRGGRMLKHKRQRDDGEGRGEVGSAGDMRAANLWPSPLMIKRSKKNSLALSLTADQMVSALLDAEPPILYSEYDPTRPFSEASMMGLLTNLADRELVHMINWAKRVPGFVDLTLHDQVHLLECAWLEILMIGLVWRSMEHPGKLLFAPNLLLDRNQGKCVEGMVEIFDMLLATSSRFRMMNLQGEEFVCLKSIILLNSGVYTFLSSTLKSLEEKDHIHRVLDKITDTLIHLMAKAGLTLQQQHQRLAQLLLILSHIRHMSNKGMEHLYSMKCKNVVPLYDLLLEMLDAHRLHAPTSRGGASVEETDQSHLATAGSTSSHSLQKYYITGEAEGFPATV

[3] = system: postmenopausal women; settings: cited from earlier work
[4] = system: human ZR-75-1 breast tumor xenografts; test: Growth of human ZR-75-1 breast tumor xenografts in OVX nude mice supplemented with estrone; settings: E1 0.5 μg s.c. daily alone, OVX nude mice, 9.5 months

| SMILES | Cholesterol [1] [mmol/L] | GnRH mRNA levels silver grains per cell [1] [silver grains per cell] | Serum Alkaline phosphatase [1] [IU/L] | Triglycerides [1] [mmol/L] | Urinary OH-proline/creatinin [1] [μmol/mmol] | LH [1] [ng/mL] | also measured |
| --- | --- | --- | --- | --- | --- | --- | --- |
| CC(=O)O[C@]1(C(C)=O)CC[C@H]2[C@@H]3C[C@H](C)C4=CC(=O)CC[C@]4(C)[C@H]3CC[C@@]21C [MPA] | 2.55 ± 0.14 | 35.5 ± 0.7 | 57 ± 4 | 1.3 ± 0.1 | 11.7 ± 1.2 | 2.51 ± 0.20 | – |
| C[C@]12CCC(=O)C[C@@H]1CC[C@@H]1[C@@H]2CC[C@]2(C)[C@@H](O)CC[C@@H]12 [DHT] | 2.44 ± 0.16 | 38.8 ± 0.7 | 56 ± 5 | 0.9 ± 0.1 | 7.8 ± 0.7 | 1.55 ± 0.27 | – |
| C[C@]12CC[C@@H]3c4ccc(O)cc4C[C@@H](CCCCCCCCC[S+]([O-])CCCC(F)(F)C(F)(F)F)[C@H]3[C@@H]1CC[C@@H]2O (stereo partly shown) [ICI 182,780] | – | – | – | – | – | – | function as SERM [2]: found not to function as SERMs |
| C[C@]12CC[C@H]3[C@@H](CCC4=CC(=O)CC[C@@H]43)[C@@H]1CC[C@@H]2O [nandrolone] | – | – | – | – | – | – | patients with androgenic side-effects [3]: 50% |
| C[C@]12CC[C@@H]3c4ccc(O)cc4CC[C@H]3[C@@H]1CCC2=O [estrone] | – | – | – | – | – | – | Complete response, (%) [4]: 0%; Complete response, number [4]: 0 (0); Partial response, (%) [4]: 0 (0) %; Partial response, number [4]: 0 (0); Progression, number [4]: 14; Stable response, (%) [4]: 12.5%; Stable response, number [4]: 2; Complete response, (%) ([4]; listed as E1): 0 (0) % |
